Test results published in the supplement of paper PMC10307832.

Experiments:
Experiment in all cases: relative viability (nuclei count vs DMSO), 5 days (fraction); higher = more cells survive
Idelalisib + Pemetrexed = compound: CC[C@H](Nc1ncnc2[nH]cnc12)c1nc2cccc(F)c2c(=O)n1-c1ccccc1 [Idelalisib] + Nc1nc2[nH]cc(CCc3ccc(C(=O)N[C@@H](CCC(=O)O)C(=O)O)cc3)c2c(=O)[nH]1 [Pemetrexed] (partner 0.2 µM)
Summary of the method: (§1)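 A single step with final 0.05% Triton X-100, 1% formaldehyde and 1 ug/ml Hoechst fixed the cells and stained nuclei 5 days after treatment. Lung cancer cell lines in 1536-well plates had been treated by pin tool the day after seeding with one drug alone or a fixed anchor-drug dose plus five library-drug doses (not always all listed) in √10 steps, and nuclei were counted on 4× images. Relative viability is the ratio of nuclei in treated wells to nuclei in vehicle wells, taken as the median of duplicate plates.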

Idelalisib + Pictilisib = compound: CC[C@H](Nc1ncnc2[nH]cnc12)c1nc2cccc(F)c2c(=O)n1-c1ccccc1 [Idelalisib] + CS(=O)(=O)N1CCN(Cc2cc3nc(-c4cccc5[nH]ncc45)nc(N4CCOCC4)c3s2)CC1 [Pictilisib] (partner 1 µM)
Summary of the method: as §1

Idelalisib + Luminespib = compound: CC[C@H](Nc1ncnc2[nH]cnc12)c1nc2cccc(F)c2c(=O)n1-c1ccccc1 [Idelalisib] + CCNC(=O)c1noc(-c2cc(C(C)C)c(O)cc2O)c1-c1ccc(CN2CCOCC2)cc1 [Luminespib] (partner 0.01 µM)
Summary of the method: as §1

Idelalisib + Crizotinib = compound: CC[C@H](Nc1ncnc2[nH]cnc12)c1nc2cccc(F)c2c(=O)n1-c1ccccc1 [Idelalisib] + C[C@@H](Oc1cc(-c2cnn(C3CCNCC3)c2)cnc1N)c1c(Cl)ccc(F)c1Cl [Crizotinib] (partner 1 µM)
Summary of the method: as §1

## COR-L23
Idelalisib + Pemetrexed; first compound 0.04 µM
  relative viability: 0.186
Idelalisib + Pemetrexed; first compound 0.1265 µM
  relative viability: 0.203
Idelalisib + Pemetrexed; first compound 0.4 µM
  relative viability: 0.199
Idelalisib + Pemetrexed; first compound 1.265 µM
  relative viability: 0.204
Idelalisib + Pemetrexed; first compound 4 µM
  relative viability: 0.182
Idelalisib + Pictilisib; first compound 0.04 µM
  relative viability: 0.674
Idelalisib + Pictilisib; first compound 0.1265 µM
  relative viability: 0.8
Idelalisib + Pictilisib; first compound 0.4 µM
  relative viability: 0.514
Idelalisib + Pictilisib; first compound 1.265 µM
  relative viability: 0.8
Idelalisib + Pictilisib; first compound 4 µM
  relative viability: 0.777
Idelalisib + Luminespib; first compound 0.04 µM
  relative viability: 0.848
Idelalisib + Luminespib; first compound 0.1265 µM
  relative viability: 0.681
Idelalisib + Luminespib; first compound 0.4 µM
  relative viability: 0.699
Idelalisib + Luminespib; first compound 1.265 µM
  relative viability: 0.819
Idelalisib + Luminespib; first compound 4 µM
  relative viability: 0.549
Idelalisib + Crizotinib; first compound 0.04 µM
  relative viability: 0.881
Idelalisib + Crizotinib; first compound 0.1265 µM
  relative viability: 0.678
Idelalisib + Crizotinib; first compound 0.4 µM
  relative viability: 0.67
Idelalisib + Crizotinib; first compound 1.265 µM
  relative viability: 0.712
Idelalisib + Crizotinib; first compound 4 µM
  relative viability: 0.393

## NCI-H3122
Idelalisib + Pemetrexed; first compound 0.04 µM
  relative viability: 0.21
Idelalisib + Pemetrexed; first compound 0.1265 µM
  relative viability: 0.207
Idelalisib + Pemetrexed; first compound 0.4 µM
  relative viability: 0.196
Idelalisib + Pemetrexed; first compound 1.265 µM
  relative viability: 0.188
Idelalisib + Pemetrexed; first compound 4 µM
  relative viability: 0.198
Idelalisib + Pictilisib; first compound 0.04 µM
  relative viability: 0.595
Idelalisib + Pictilisib; first compound 0.1265 µM
  relative viability: 0.594
Idelalisib + Pictilisib; first compound 0.4 µM
  relative viability: 0.551
Idelalisib + Pictilisib; first compound 1.265 µM
  relative viability: 0.669
Idelalisib + Pictilisib; first compound 4 µM
  relative viability: 0.557
Idelalisib + Luminespib; first compound 0.04 µM
  relative viability: 0.0784
Idelalisib + Luminespib; first compound 0.1265 µM
  relative viability: 0.0938
Idelalisib + Luminespib; first compound 0.4 µM
  relative viability: 0.115
Idelalisib + Luminespib; first compound 1.265 µM
  relative viability: 0.0796
Idelalisib + Luminespib; first compound 4 µM
  relative viability: 0.0833
Idelalisib + Crizotinib; first compound 0.04 µM
  relative viability: 0.296
Idelalisib + Crizotinib; first compound 0.1265 µM
  relative viability: 0.28
Idelalisib + Crizotinib; first compound 0.4 µM
  relative viability: 0.3
Idelalisib + Crizotinib; first compound 1.265 µM
  relative viability: 0.283
Idelalisib + Crizotinib; first compound 4 µM
  relative viability: 0.289

## NCI-H2170
Idelalisib + Pemetrexed; first compound 0.04 µM
  relative viability: 0.292
Idelalisib + Pemetrexed; first compound 0.1265 µM
  relative viability: 0.254
Idelalisib + Pemetrexed; first compound 0.4 µM
  relative viability: 0.268
Idelalisib + Pemetrexed; first compound 1.265 µM
  relative viability: 0.262
Idelalisib + Pemetrexed; first compound 4 µM
  relative viability: 0.29
Idelalisib + Pictilisib; first compound 0.04 µM
  relative viability: 0.313
Idelalisib + Pictilisib; first compound 0.1265 µM
  relative viability: 0.312
Idelalisib + Pictilisib; first compound 0.4 µM
  relative viability: 0.228
Idelalisib + Pictilisib; first compound 1.265 µM
  relative viability: 0.295
Idelalisib + Pictilisib; first compound 4 µM
  relative viability: 0.29
Idelalisib + Luminespib; first compound 0.04 µM
  relative viability: 0.548
Idelalisib + Luminespib; first compound 0.1265 µM
  relative viability: 0.843
Idelalisib + Luminespib; first compound 0.4 µM
  relative viability: 0.645
Idelalisib + Luminespib; first compound 1.265 µM
  relative viability: 0.61
Idelalisib + Luminespib; first compound 4 µM
  relative viability: 0.673
Idelalisib + Crizotinib; first compound 0.04 µM
  relative viability: 1.23
Idelalisib + Crizotinib; first compound 0.1265 µM
  relative viability: 1.18
Idelalisib + Crizotinib; first compound 0.4 µM
  relative viability: 1.07
Idelalisib + Crizotinib; first compound 1.265 µM
  relative viability: 1.07
Idelalisib + Crizotinib; first compound 4 µM
  relative viability: 0.983

## BEN
Idelalisib + Pemetrexed; first compound 0.04 µM
  relative viability: 0.824
Idelalisib + Pemetrexed; first compound 0.1265 µM
  relative viability: 0.709
Idelalisib + Pemetrexed; first compound 0.4 µM
  relative viability: 0.895
Idelalisib + Pemetrexed; first compound 1.265 µM
  relative viability: 0.736
Idelalisib + Pemetrexed; first compound 4 µM
  relative viability: 0.724
Idelalisib + Pictilisib; first compound 0.04 µM
  relative viability: 0.559
Idelalisib + Pictilisib; first compound 0.1265 µM
  relative viability: 0.517
Idelalisib + Pictilisib; first compound 0.4 µM
  relative viability: 0.531
Idelalisib + Pictilisib; first compound 1.265 µM
  relative viability: 0.609
Idelalisib + Pictilisib; first compound 4 µM
  relative viability: 0.523
Idelalisib + Luminespib; first compound 0.04 µM
  relative viability: 0.333
Idelalisib + Luminespib; first compound 0.1265 µM
  relative viability: 0.459
Idelalisib + Luminespib; first compound 0.4 µM
  relative viability: 0.232
Idelalisib + Luminespib; first compound 1.265 µM
  relative viability: 0.416
Idelalisib + Luminespib; first compound 4 µM
  relative viability: 0.242
Idelalisib + Crizotinib; first compound 0.04 µM
  relative viability: 0.875
Idelalisib + Crizotinib; first compound 0.1265 µM
  relative viability: 1.06
Idelalisib + Crizotinib; first compound 0.4 µM
  relative viability: 0.751
Idelalisib + Crizotinib; first compound 1.265 µM
  relative viability: 0.886
Idelalisib + Crizotinib; first compound 4 µM
  relative viability: 0.661

## NCI-H647
Idelalisib + Pemetrexed; first compound 0.04 µM
  relative viability: 0.166
Idelalisib + Pemetrexed; first compound 0.1265 µM
  relative viability: 0.144
Idelalisib + Pemetrexed; first compound 0.4 µM
  relative viability: 0.14
Idelalisib + Pemetrexed; first compound 1.265 µM
  relative viability: 0.154
Idelalisib + Pemetrexed; first compound 4 µM
  relative viability: 0.159
Idelalisib + Pictilisib; first compound 0.04 µM
  relative viability: 0.448
Idelalisib + Pictilisib; first compound 0.1265 µM
  relative viability: 0.452
Idelalisib + Pictilisib; first compound 0.4 µM
  relative viability: 0.475
Idelalisib + Pictilisib; first compound 1.265 µM
  relative viability: 0.377
Idelalisib + Pictilisib; first compound 4 µM
  relative viability: 0.393
Idelalisib + Luminespib; first compound 0.04 µM
  relative viability: 0.171
Idelalisib + Luminespib; first compound 0.1265 µM
  relative viability: 0.141
Idelalisib + Luminespib; first compound 1.265 µM
  relative viability: 0.241
Idelalisib + Luminespib; first compound 4 µM
  relative viability: 0.121
Idelalisib + Crizotinib; first compound 0.04 µM
  relative viability: 1.43
Idelalisib + Crizotinib; first compound 0.1265 µM
  relative viability: 1.03
Idelalisib + Crizotinib; first compound 0.4 µM
  relative viability: 0.815
Idelalisib + Crizotinib; first compound 1.265 µM
  relative viability: 0.859
Idelalisib + Crizotinib; first compound 4 µM
  relative viability: 0.7

## PC-14
Idelalisib + Pemetrexed; first compound 0.04 µM
  relative viability: 0.15
Idelalisib + Pemetrexed; first compound 0.1265 µM
  relative viability: 0.126
Idelalisib + Pemetrexed; first compound 0.4 µM
  relative viability: 0.148
Idelalisib + Pemetrexed; first compound 1.265 µM
  relative viability: 0.142
Idelalisib + Pemetrexed; first compound 4 µM
  relative viability: 0.135
Idelalisib + Pictilisib; first compound 0.04 µM
  relative viability: 0.765
Idelalisib + Pictilisib; first compound 0.1265 µM
  relative viability: 0.788
Idelalisib + Pictilisib; first compound 0.4 µM
  relative viability: 0.705
Idelalisib + Pictilisib; first compound 1.265 µM
  relative viability: 0.688
Idelalisib + Pictilisib; first compound 4 µM
  relative viability: 0.506
Idelalisib + Luminespib; first compound 0.04 µM
  relative viability: 0.158
Idelalisib + Luminespib; first compound 0.1265 µM
  relative viability: 0.136
Idelalisib + Luminespib; first compound 0.4 µM
  relative viability: 0.127
Idelalisib + Luminespib; first compound 1.265 µM
  relative viability: 0.154
Idelalisib + Luminespib; first compound 4 µM
  relative viability: 0.123
Idelalisib + Crizotinib; first compound 0.04 µM
  relative viability: 0.821
Idelalisib + Crizotinib; first compound 0.1265 µM
  relative viability: 0.947
Idelalisib + Crizotinib; first compound 0.4 µM
  relative viability: 0.882
Idelalisib + Crizotinib; first compound 1.265 µM
  relative viability: 0.905
Idelalisib + Crizotinib; first compound 4 µM
  relative viability: 0.908

## NCI-H1666
Idelalisib + Pemetrexed; first compound 0.04 µM
  relative viability: 0.821
Idelalisib + Pemetrexed; first compound 0.1265 µM
  relative viability: 0.835
Idelalisib + Pemetrexed; first compound 0.4 µM
  relative viability: 0.844
Idelalisib + Pemetrexed; first compound 1.265 µM
  relative viability: 0.847
Idelalisib + Pemetrexed; first compound 4 µM
  relative viability: 0.996
Idelalisib + Pictilisib; first compound 0.04 µM
  relative viability: 0.541
Idelalisib + Pictilisib; first compound 0.1265 µM
  relative viability: 0.48
Idelalisib + Pictilisib; first compound 0.4 µM
  relative viability: 0.469
Idelalisib + Pictilisib; first compound 1.265 µM
  relative viability: 0.361
Idelalisib + Pictilisib; first compound 4 µM
  relative viability: 0.333
Idelalisib + Luminespib; first compound 0.04 µM
  relative viability: 1.09
Idelalisib + Luminespib; first compound 0.1265 µM
  relative viability: 1.13
Idelalisib + Luminespib; first compound 0.4 µM
  relative viability: 1.06
Idelalisib + Luminespib; first compound 1.265 µM
  relative viability: 1.01
Idelalisib + Luminespib; first compound 4 µM
  relative viability: 1.04
Idelalisib + Crizotinib; first compound 0.04 µM
  relative viability: 0.953
Idelalisib + Crizotinib; first compound 0.1265 µM
  relative viability: 1.03
Idelalisib + Crizotinib; first compound 0.4 µM
  relative viability: 0.809
Idelalisib + Crizotinib; first compound 1.265 µM
  relative viability: 0.964
Idelalisib + Crizotinib; first compound 4 µM
  relative viability: 0.721

## COR-L 105
Idelalisib + Pemetrexed; first compound 0.04 µM
  relative viability: 1.18
Idelalisib + Pemetrexed; first compound 0.1265 µM
  relative viability: 1.1
Idelalisib + Pemetrexed; first compound 0.4 µM
  relative viability: 0.913
Idelalisib + Pemetrexed; first compound 1.265 µM
  relative viability: 1.06
Idelalisib + Pemetrexed; first compound 4 µM
  relative viability: 0.924
Idelalisib + Pictilisib; first compound 0.04 µM
  relative viability: 0.555
Idelalisib + Pictilisib; first compound 0.1265 µM
  relative viability: 0.418
Idelalisib + Pictilisib; first compound 0.4 µM
  relative viability: 0.399
Idelalisib + Pictilisib; first compound 1.265 µM
  relative viability: 0.463
Idelalisib + Pictilisib; first compound 4 µM
  relative viability: 0.31
Idelalisib + Luminespib; first compound 0.04 µM
  relative viability: 0.695
Idelalisib + Luminespib; first compound 0.1265 µM
  relative viability: 0.783
Idelalisib + Luminespib; first compound 0.4 µM
  relative viability: 0.814
Idelalisib + Luminespib; first compound 1.265 µM
  relative viability: 0.699
Idelalisib + Luminespib; first compound 4 µM
  relative viability: 0.573
Idelalisib + Crizotinib; first compound 0.04 µM
  relative viability: 0.702
Idelalisib + Crizotinib; first compound 0.1265 µM
  relative viability: 0.948
Idelalisib + Crizotinib; first compound 0.4 µM
  relative viability: 0.709
Idelalisib + Crizotinib; first compound 1.265 µM
  relative viability: 0.778
Idelalisib + Crizotinib; first compound 4 µM
  relative viability: 0.775
